Biological target: T1, human Lf (lactoferrin) (Homo sapiens, UniProt P02788)
T1 construct: gene LTF; full-length, label-free
Assay: label-free microscale thermophoresis (intrinsic fluorescence, […] nm)
Type: binding
Conditions: 0.1 M Tris pH 7.4; Lf 120 nM; CP20 7 nM to 250 μM; 10 min equilibration; iron saturation of Lf not stated

T1 sequence (P02788 20-710): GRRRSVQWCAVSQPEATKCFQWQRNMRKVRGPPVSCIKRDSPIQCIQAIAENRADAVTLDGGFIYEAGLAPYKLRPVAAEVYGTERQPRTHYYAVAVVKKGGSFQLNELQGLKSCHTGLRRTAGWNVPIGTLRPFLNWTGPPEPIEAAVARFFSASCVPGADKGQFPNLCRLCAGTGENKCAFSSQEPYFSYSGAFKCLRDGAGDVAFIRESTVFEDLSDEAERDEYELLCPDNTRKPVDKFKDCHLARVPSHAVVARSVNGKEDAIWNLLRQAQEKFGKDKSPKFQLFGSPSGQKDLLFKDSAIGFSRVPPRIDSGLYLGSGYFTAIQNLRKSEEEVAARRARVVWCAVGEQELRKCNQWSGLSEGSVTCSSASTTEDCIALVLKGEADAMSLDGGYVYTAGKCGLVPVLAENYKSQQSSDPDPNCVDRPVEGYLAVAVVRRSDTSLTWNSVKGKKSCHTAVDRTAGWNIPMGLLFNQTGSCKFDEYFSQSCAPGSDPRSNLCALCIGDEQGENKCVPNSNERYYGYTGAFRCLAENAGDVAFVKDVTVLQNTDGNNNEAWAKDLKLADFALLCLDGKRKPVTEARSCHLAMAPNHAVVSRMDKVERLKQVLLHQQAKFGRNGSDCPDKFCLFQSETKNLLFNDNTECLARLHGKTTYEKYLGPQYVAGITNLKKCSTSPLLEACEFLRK

Kd: 8.9 × 10^−6 ± 1.6 Molar
Compound: Cc1c(O)c(=O)ccn1C [deferiprone, 1,2-dimethyl-3-hydroxypyrid-4-one]

— PMC9319837, “Microscale Thermophoresis and Molecular Modelling to Explore the Chelating Drug Transportation in the Milk to Infant” (Molecules, 2022)
